Results: paper PMC6001238, “Iterative Chemical Engineering of Vancomycin Leads to Novel Vancomycin Analogs With a High in Vitro Therapeutic Index” (Frontiers in Microbiology, 2018)
Converted amounts (≈) assume the structure as drawn. Where two headings read alike, the source gives them in different places.

Tests used:
B. subtilis PSB3 = assay: MIC, broth microdilution, B. subtilis PSB3; type: cell-based, Bacillus subtilis; conditions: for MICvanc/MICi: ratio of MIC of vancomycin and MIC of analogue
Procedure: (§1) The minimum inhibitory concentration (MIC) was determined using the broth microdilution method according to the antimicrobial susceptibility testing standards of the clinical and laboratory standards institute ([Clinical and Laboratory Standards Institute [CLSI], 2012]). Ultrapure water and non-inoculated broth were used as controls. In one case, a final concentration of 10 μM vancomycin was included with the vancomycin analog or control antibiotic.

E. coli XL-1 blue MRF' = assay: MIC, broth microdilution, E. coli XL-1 blue MRF'; type: cell-based, Escherichia coli; conditions: E. coli XL-1 blue MRF'; for MICvanc/MICi: ratio of MIC of vancomycin and MIC of analogue
Procedure: as §1

E. faecalis VSE 1 = assay: MIC, broth microdilution, vancomycin-sensitive E. faecalis (VSE 1); type: cell-based, Enterococcus faecalis; conditions: for MIC: read-out: MIC
In short: (§2)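 Controls (ultrapure water; broth not inoculated) were included throughout CLSI-compliant broth microdilution. One condition supplemented analogue or comparator with 10 μM vancomycin, final level.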

E. faecalis VRE 6 = assay: MIC, broth microdilution, vancomycin-resistant E. faecalis VRE 6 (VanA); type: cell-based, Enterococcus faecalis; conditions: for MIC: read-out: MIC
In short: as §2

E. faecalis VRE 53 = assay: MIC, broth microdilution, vancomycin-resistant E. faecalis VRE 53 (VanA); type: cell-based, Enterococcus faecalis; conditions: for MIC: read-out: MIC
In short: as §2

E. faecalis VRE 29 = assay: MIC, broth microdilution, vancomycin-resistant E. faecalis VRE 29 (VanA); type: cell-based, Enterococcus faecalis
In short: as §2

E. faecalis VRE 37 = assay: MIC, broth microdilution, vancomycin-resistant E. faecalis VRE 37 (VanA); type: cell-based, Enterococcus faecalis; conditions: Enterococcus faecalis VRE 37 (vancomycin-resistant); read-out: MIC
In short: as §2

[1] = test system: Murine leukemia (L1210) cells; assay: Cytostatic activity, L1210 cell proliferation; type: cell-based; conditions: mean ± SD of three experiments; highest concentration tested 250 µM; 2 days; read-out: Toxicity (IC50) L1210
In short: (§3)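 Test compounds, serially diluted, received an equal volume of cell suspension at 300,000–500,000 cells/mL. After 37°C incubation (2 days for L1210, 3 for CEM, 4 for HeLa), cells were enumerated by Coulter counting and 50%-inhibitory concentrations calculated per cell type.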

[2] = test system: human T-lymphocyte (CEM) cells; assay: Cytostatic activity, CEM cell proliferation; type: cell-based; conditions: mean ± SD of three experiments; highest concentration tested 250 µM; 3 days; read-out: Toxicity (IC50) CEM
In short: as §3

[3] = test system: human cervix carcinoma (HeLa) cells; assay: Cytostatic activity, HeLa cell proliferation; type: cell-based; conditions: mean ± SD of three experiments; highest concentration tested 250 µM; 4 days; read-out: Toxicity (IC50) HeLa
In short: as §3

[4] = test system: L1210, CEM and HeLa cell lines; assay: Cytostatic activity, average or summary over L1210, CEM and HeLa; type: cell-based; conditions: average of L1210, CEM and HeLa; read-out: Toxicity (IC50) Average
In short: as §3

[5] = test system: S. aureus VSSA (ATCC 6538); assay: MIC, broth microdilution, vancomycin-sensitive S. aureus (VSSA/MSSA, ATCC 6538); type: cell-based, Staphylococcus aureus
In short: as §2

S. aureus VISA/HIP5827 = assay: MIC, broth microdilution, vancomycin-intermediate S. aureus VISA HIP5827; type: cell-based, Staphylococcus aureus
In short: as §2

S. aureus VRSA = assay: MIC, broth microdilution, vancomycin-resistant S. aureus (VRSA); type: cell-based, Staphylococcus aureus
In short: as §2

MRSA KS2 = assay: MIC, broth microdilution, MRSA KS2; type: cell-based, Staphylococcus aureus
In short: as §2

MRSA KS6 = assay: MIC, broth microdilution, MRSA KS6; type: cell-based, Staphylococcus aureus
In short: as §2

MRSA KS89 = assay: MIC, broth microdilution, MRSA KS89; type: cell-based, Staphylococcus aureus
In short: as §2

MRSA KS1 = assay: MIC, broth microdilution, MRSA KS1; type: cell-based, Staphylococcus aureus
In short: as §2

[6] = E. faecalis VSE 1, ratio of MIC of vancomycin and MIC of analogue
[7] = E. faecalis VRE 6, ratio of MIC of vancomycin and MIC of analogue
[8] = E. faecalis VRE 53, ratio of MIC of vancomycin and MIC of analogue

Compound `C#CCNC(=O)[C@H]1NC(=O)[C@H]2NC(=O)[C@H](NC(=O)[C@@H]3NC(=O)[C@H](CC(N)=O)NC(=O)[C@H](NC(=O)[C@@H](CC(C)C)NC)[C@H](O)c4ccc(c(Cl)c4)Oc4cc3cc(c4O[C@@H]3O[C@H](CO)[C@@H](O)[C@H](O)[C@H]3O[C@H]3C[C@](C)(N)[C@H](O)[C@H](C)O3)Oc3ccc(cc3Cl)[C@H]2O)c2ccc(O)c(c2)-c2c(O)cc(O)cc21` [Vanc-G] has an MIC (B. subtilis PSB3) of 0.78 µM (≈ 1.16 µg/mL), an MICvanc/MICi (B. subtilis PSB3) of 0.5 and an MIC (E. coli XL-1 blue MRF') of 12.5 µM (≈ 18.6 µg/mL). For the same compound, the MICvanc/MICi (E. coli XL-1 blue MRF') was 8, the MICvanc/MICi (E. faecalis VSE 1; [6]) was 4 and the MIC (E. faecalis VSE 1; E. faecalis VSE 1) was 0.39 µM (≈ 0.58 µg/mL). It also gave an MICvanc/MICi (E. faecalis VRE 6; [7]) of 2, an MIC (E. faecalis VRE 6; E. faecalis VRE 6) of 100 µM (≈ 149 µg/mL) and an MICvanc/MICi (E. faecalis VRE 53; [8]) of 8. It also gave an MIC (E. faecalis VRE 53; E. faecalis VRE 53) of 50 µM (≈ 74.3 µg/mL).

With `C#Cc1ccc2cc(C(=O)NCCCNC(=O)[C@H]3NC(=O)[C@H]4NC(=O)[C@H](NC(=O)[C@@H]5NC(=O)[C@H](CC(N)=O)NC(=O)[C@H](NC(=O)[C@@H](CC(C)C)NC)[C@H](O)c6ccc(c(Cl)c6)Oc6cc5cc(c6O[C@@H]5O[C@H](CO)[C@@H](O)[C@H](O)[C@H]5O[C@H]5C[C@](C)(N)[C@H](O)[C@H](C)O5)Oc5ccc(cc5Cl)[C@H]4O)c4ccc(O)c(c4)-c4c(O)cc(O)cc43)ccc2c1` [Vanc-T] the MIC (B. subtilis PSB3) was 0.39 µM (≈ 0.657 µg/mL), the MICvanc/MICi (B. subtilis PSB3) was 1 and the MIC (E. coli XL-1 blue MRF') was 25 µM (≈ 42.1 µg/mL). The MICvanc/MICi (E. coli XL-1 blue MRF') was 4, the MICvanc/MICi (E. faecalis VSE 1; [6]) was 32 and the MIC (E. faecalis VSE 1; E. faecalis VSE 1) was 0.05 µM (≈ 0.0842 µg/mL). The MIC (E. faecalis VSE 1; Enterococcus faecalis VSE 1 (vancomycin-sensitive)) was 0.05 µM (≈ 0.0842 µg/mL), the “MIC-fold improvement vs. vancomycin” value (E. faecalis VSE 1; VSE 1, ratio of MIC of vancomycin and MIC of analogue) was 32 and the MICvanc/MICi (E. faecalis VRE 6; [7]) was 64. The MIC (E. faecalis VRE 6; E. faecalis VRE 6) was 3.13 µM (≈ 5.27 µg/mL), the MIC (E. faecalis VRE 6; Enterococcus faecalis VRE 6 (vancomycin-resistant)) was 3.13 µM (≈ 5.27 µg/mL) and the “MIC-fold improvement vs. vancomycin” value (E. faecalis VRE 6; VRE 6, ratio of MIC of vancomycin and MIC of analogue) was 64. The MICvanc/MICi (E. faecalis VRE 53; [8]) was 128, the MIC (E. faecalis VRE 53; E. faecalis VRE 53) was 3.13 µM (≈ 5.27 µg/mL) and the MIC (E. faecalis VRE 53; Enterococcus faecalis VRE 53 (vancomycin-resistant)) was 3.13 µM (≈ 5.27 µg/mL). The “MIC-fold improvement vs. vancomycin” value (E. faecalis VRE 53; VRE 53, ratio of MIC of vancomycin and MIC of analogue) was 128, the MIC (E. faecalis VRE 29; Enterococcus faecalis VRE 29 (vancomycin-resistant), read-out: MIC) was 12.5 µM (≈ 21 µg/mL) and the “MIC-fold improvement vs. vancomycin” value (E. faecalis VRE 29; VRE 29, ratio of MIC of vancomycin and MIC of analogue) was 32. It also gave an MIC (E. faecalis VRE 37) of 25 µM (≈ 42.1 µg/mL), an IC50 [1] of 77 ± 17 µM and an IC50 [2] of 60 ± 10 µM. The IC50 [3] was 75 ± 20 µM, the IC50 [4] was 71 µM and the MIC ([5]; Staphylococcus aureus VSSA, read-out: MIC) was 0.10 µM (≈ 0.168 µg/mL). The “MIC-fold improvement vs. vancomycin” value ([5]; VSSA, ratio of MIC of vancomycin and MIC of analogue) was 8, the MIC (S. aureus VISA/HIP5827; Staphylococcus aureus VISA/HIP5827, read-out: MIC) was 1.56 µM (≈ 2.63 µg/mL) and the “MIC-fold improvement vs. vancomycin” value (S. aureus VISA/HIP5827; VISA/HIP5827, ratio of MIC of vancomycin and MIC of analogue) was 4. For the same compound, the MIC (S. aureus VRSA; Staphylococcus aureus VRSA, read-out: MIC) was 1.56 µM (≈ 2.63 µg/mL), the “MIC-fold improvement vs. vancomycin” value (S. aureus VRSA; VRSA, ratio of MIC of vancomycin and MIC of analogue) was 64 and the “MIC-fold improvement vs. vancomycin” value (MRSA KS2; MRSA KS2, ratio of MIC of vancomycin and MIC of analogue) was 4. For the same compound, the MIC (MRSA KS2; Staphylococcus aureus MRSA KS2, read-out: MIC) was 0.20 µM (≈ 0.337 µg/mL), the “MIC-fold improvement vs. vancomycin” value (MRSA KS6; MRSA KS6, ratio of MIC of vancomycin and MIC of analogue) was 2 and the MIC (MRSA KS6; Staphylococcus aureus MRSA KS6, read-out: MIC) was 0.39 µM (≈ 0.657 µg/mL). For the same compound, the “MIC-fold improvement vs. vancomycin” value (MRSA KS89; MRSA KS8, ratio of MIC of vancomycin and MIC of analogue) was 4, the MIC (MRSA KS89; Staphylococcus aureus MRSA KS8, read-out: MIC) was 0.20 µM (≈ 0.337 µg/mL) and the “MIC-fold improvement vs. vancomycin” value (MRSA KS1; MRSA KS1, ratio of MIC of vancomycin and MIC of analogue) was 4. It also gave an MIC (MRSA KS1; Staphylococcus aureus MRSA KS1, read-out: MIC) of 0.20 µM (≈ 0.337 µg/mL).
